Source: PubChem BioAssay (NCI)
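Dose response: 5 concentrations. Exposure: 48 h. Format: 96-well plates. Endpoint: linear interpolation; highest concentration if not reached. GI50 = concentration required for 50% inhibition of growth. Definition used: TGI = concentration required for complete inhibition of growth.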

What was measured:
Experiment in all cases: DTP human tumour cell line panel, 48 h
[1] = tested on: KM12 colon
[2] = tested on: NCI-H23 lung
[3] = tested on: RXF 393 renal
[4] = tested on: ACHN renal
[5] = tested on: A498 renal
[6] = tested on: NCI-H226 lung
[7] = tested on: SF-268 CNS
[8] = tested on: MOLT-4 leukemia
[9] = tested on: SF-539 CNS
[10] = tested on: K-562 leukemia

Row | Structure (SMILES) | GI50 [1] [µM] | TGI [1] [µM] | GI50 [2] [µM] | TGI [2] [µM] | GI50 [3] [µM] | TGI [3] [µM] | GI50 [4] [µM] | TGI [4] [µM] | GI50 [5] [µM] | TGI [5] [µM] | GI50 [6] [µM] | TGI [6] [µM] | GI50 [7] [µM] | TGI [7] [µM] | GI50 [8] [µM] | TGI [8] [µM] | GI50 [9] [µM] | TGI [9] [µM] | TGI [10] [µM] | GI50 [10] [µM]
1 | O=C(c1ccc2ccccc2c1)c1c(C(F)(F)F)n([O-])c2ccc(F)cc2[n+]1=O | 0.673 | 2.46 | 0.574 | 1.91 | 0.283 | 0.958 | 1.68 | 3.04 | 6.9 | 21 | 1.96 | 3.97 | 1.73 | 3.37 | 0.393 | 1.97 | 1.88 | 3.32 |  | 
2 | CC(N1CCOCC1)C(O)(c1ccccc1)c1ccccn1 (stereo not drawn) |  | > 100 |  | > 100 |  | > 100 |  | > 100 |  | > 100 |  | > 100 |  | > 100 |  |  |  | > 100 | > 100 | 
3 | C/C(CC(=O)Nc1cccc([N+](=O)[O-])c1)=N\NC(=O)CC#N |  | > 100 |  | > 100 |  | > 100 |  |  |  |  |  | > 100 |  | > 100 |  | > 100 |  | > 100 | > 100 | 
4 | Nc1c(C(=O)Nc2cccc3ccccc23)sc2nc3c(cc12)C(=O)CCC3 | 0.217 | > 100 | 0.315 | > 42.2 |  |  | 0.341 | > 58.2 | 0.0463 | 1.55 | 1.16 | > 63.6 | 0.587 | > 65.6 | 0.659 | > 100 | 0.152 | 0.456 | > 100 | 0.131
5 | O=Cc1ccc(N2CCN(c3ccc(C=O)cc3)CC2)cc1 | > 100 | > 100 | > 100 | > 100 | 67.2 | > 100 | > 100 | > 100 |  |  | 1.65 | 4.12 | > 100 | > 100 | > 100 | > 100 | > 100 | > 100 | > 100 | > 100
6 | Cc1cc2nc3c4ccc(Br)cc4n(CCN(C)C)c3nc2cc1C | 1.54 | 4.66 | 1.5 | 3.47 | 1.31 | 3.01 | 0.459 | 2.23 | 1.02 | 2.54 | 2.46 | 11.1 | 2 | 6.24 | 0.412 | 5.62 | 1.6 | 3.17 |  | 
7 | O=S1(=O)c2ccccc2N=C(c2ccccc2Cl)CC1c1ccc(F)cc1 (stereo not drawn) |  | 31.8 |  | 32.2 |  | 20.1 |  | 32.6 |  | 35.7 |  |  |  | 47.4 |  | 51.7 |  | 35.7 | 34.6 | 
